Laboratory results taken from patent publication US20100113544A1, “Suppressant for cerebral infarction attributed to long-time ischemia” (Ehime University, priority 2004, published 2010).
Marks after values point to notes of the source that are not given here.

Experiments:
[1] = patients who received the drug; cited from earlier work
[2] = tested on: cerebral infarction after 2 hours middle cerebral artery occlusion in male Wistar rats; experiment: Size of cerebral infarction (triphenyltetrazolium chloride staining, planimetry) 24 h after reperfusion following 2 h middle cerebral artery occlusion; assay type: in vivo, rat; conditions: for size of cerebral infarction, Cerebral cortex / size of cerebral infarction, Striatum / size of cerebral infarction, Total: mean ± SD
Source text: These rats were anesthetized with a gas mixture of 2% halothane, 49% oxygen and 49% laughing gas, i.e. N2O, and kept under spontaneous breathing. Subsequently, a median incision was made in the neck of the rat placed on its back, and the right common carotid artery was exposed. After an intraperitoneal injection of 100 units of heparin, the root of the right middle cerebral artery was occluded by inserting 4·0 nylon thread coated with silicone into the right internal carotid artery from the bifurcation of the internal and external carotid arteries. The tip of the nylon thread was placed 18 mm from the bifurcation. After suture of the incision of the skin, the rats were allowed to recover from anesthesia. During surgery, an electronic thermometer was inserted into the rectum, and the temperature of the rectum was maintained at 37.0±0.1° C. with a lamp.
Five minutes before reperfusion of blood flow, the rats were anesthetized again. After opening the skin suture, the cerebral blood flow was resumed by removing the nylon thread by 5 mm 2 hours after middle cerebral artery occlusion. […] After recovery from anesthesia, the rats were allowed to access food and water freely.
Twenty-four hours after recovery of blood flow, sodium pentobarbital was intraperitoneally administered to the rats for anesthesia. Subsequently, the brain was perfused with heparinized-physiological saline, and the rat was decapitated. The brain was quickly taken out, and rinsed in physiological saline. The brain was sliced coronally between the optic chiasm and the caucal edge of the mammillary body at a thickness of 2 mm. These brain slices were subjected to incubation with 2% triphenyltetrazolium chloride in phosphate buffer (0.1 mol/L, pH 7.4) at 37° C. As a result, due to the action of dehydrogenase present in viable cells, triphenyltetrazolium chloride was reduced, and the tissue was stained in dark red. On the other hand, the dead tissue in the infarcted area was not stained. These brain slices were preserved in phosphate-buffered formalin overnight. […] The obtained size of cerebral infarction was subjected to analysis of variance and the Scheffe test.
The values in the table (unit: mm^3) indicate the size of cerebral infarction as the “mean ±standard deviation”, while “*” denotes a case in which it was significant versus the control group by p<0.05, and “**” denotes a case in which it was significant versus the control group by p<0.01.

[3] = tested on: neutrophils; experiment: Number of neutrophils in brain sections (myeloperoxidase immunohistochemistry) after 2 h middle cerebral artery occlusion and reperfusion; assay type: in vivo, rat; conditions: for number of neutrophils, +0.7 mm to the bregma / number of neutrophils, +1.7 mm to the bregma / number of neutrophils, −0.3 mm to the bregma: 1000 mg/kg i.p. twice
Method: (§1) One of the causes for organ dysfunction resulting from ischemia is reperfusion injury after recovery of blood flow, and the inflammatory response is an important factor which induces reperfusion injury. Therefore, as an index of inflammation subsequent to reperfusion of blood flow, the numbers of neutrophils and macrophages were determined.
(§2) Thirty-two male Wistar rats weighting about 300 g were divided into 4 groups with 8 rats in each. The middle cerebral artery of all rats was occluded for two hours, as shown in Example 1. […] Subsequently, 12 or 24 hours after recovery of blood flow, the brain was taken out after perfusion with physiological saline. Frozen sections having 6 μm thick was prepared at a distance of about 1.7 mm rostral to the bregma, i.e. anterior fontanel, 0.7 mm rostral to the bregma toward the rostral side, and 0.3 mm caudal to the bregma.
After observing these frozen sections by light microscopy, the total numbers of neutrophils on the ischemic and non-ischemic sides were obtained rseparately. Also, frozen sections obtained from identical rats were subjected to immunochemistry with an antibody for ED1 which is a cell surface marker of macrophages. […] Therefore, with regard to ED1-positive cells, the difference in the number of cells between the ischemic and non-ischemic sides was calculated. The difference was determined as the number of macrophages and compared between each corresponding group.

[4] = tested on: ED1-positive cells (macrophages); experiment: Number of ED1-positive cells / macrophages in brain sections (ED1 immunohistochemistry) after 2 h middle cerebral artery occlusion and reperfusion; assay type: in vivo, rat; conditions: for number of ED1-positive cells: versus control; for number of ED1-positive cells, Differences (number of macrophages), +0.7 mm to the bregma / number of ED1-positive cells, Differences (number of macrophages), +1.7 mm to the bregma / number of ED1-positive cells, Differences (number of macrophages), −0.3 mm to the bregma: difference between ischemic and non-ischemic sides; for number of ED1-positive cells, Differences (number of macrophages), +0.7 mm to the bregma / number of ED1-positive cells, Differences (number of macrophages), +1.7 mm to the bregma / number of ED1-positive cells, Differences (number of macrophages), −0.3 mm to the bregma / number of ED1-positive cells, +0.7 mm to the bregma / number of ED1-positive cells, +1.7 mm to the bregma / number of ED1-positive cells, −0.3 mm to the bregma: 1000 mg/kg i.p. twice
Method: as §1, §2
After observing these frozen sections by light microscopy, the total numbers of neutrophils on the ischemic and non-ischemic sides were obtained rseparately. Also, frozen sections obtained from identical rats were subjected to immunochemistry with an antibody for ED1 which is a cell surface marker of macrophages. ED1 is considered to exist in cells besides macrophages, and in fact, ED1-positive cells were also observed on the non-ischemic side in the experiment. However, as in Table 2, neutrophils were not observed on non-ischemia side, where inflammation was not observed. Therefore, with regard to ED1-positive cells, the difference in the number of cells between the ischemic and non-ischemic sides was calculated. The difference was determined as the number of macrophages and compared between each corresponding group. In Tables 2 and 3, “*” denotes a case in which significant differences versus the control group were observed by p<0.05 by Fisher's PLSD (protected least significant difference) tests, and “**” denotes a case in which significant difference was observed by p<0.01.

[5] = tested on: pyramidal neurons in the hippocampal CA-1 region; conditions: administration prior to transient ischemia (5 or 10 minutes forebrain ischemia), rat; cited from earlier work
[6] = tested on: neurons in the rat striatum; conditions: administered 4 times: immediately, 6, 24 and 48 hours after 15 minutes of transient ischemia, rats; cited from earlier work
[7] = administration after ischemia, 200 mg/kg i.p. immediately and 6 h after reperfusion
[8] = administration after ischemia, 500 mg/kg i.p. immediately and 6 h after reperfusion
[9] = administration after ischemia, 1000 mg/kg i.p. immediately and 6 h after reperfusion
[10] = administration before ischemia, 1000 mg/kg i.p. once 10 min before occlusion, 24 h after reperfusion
[11] = 12 hours after onset of reperfusion, ischemic side
[12] = 12 hours after onset of reperfusion, non-ischemic side
[13] = 24 hours after onset of reperfusion, ischemic side
[14] = 24 hours after onset of reperfusion, non-ischemic side
[15] = 12 hours after the onset of reperfusion
[16] = 12 hours after the onset of reperfusion, ischemic side
[17] = 12 hours after the onset of reperfusion, non-ischemic side
[18] = 24 hours after the onset of reperfusion
[19] = 24 hours after the onset of reperfusion, ischemic side
[20] = 24 hours after the onset of reperfusion, non-ischemic side

## CC1=NN(c2ccccc2)C(=O)C1 [edaravone]
[1]
  patients who showed abnormal values in laboratory tests on the liver function: 21.4%

## N[C@@H](Cc1c[nH]cn1)C(=O)O [histidine]
[2]; 200 mg/kg immediately after reperfusion and 6 hours thereafter
  infarcted volume compared with that of the control group: 71%
[2]; 500 mg/kg immediately after reperfusion and 6 hours thereafter
  infarcted volume compared with that of the control group: 39%
[2]; 1000 mg/kg immediately after reperfusion and 6 hours thereafter
  infarcted volume compared with that of the control group: 7%
[2]; [7]
  size of cerebral infarction, Cerebral cortex: 78.8 ± 52.3 mm^3
  size of cerebral infarction, Striatum: 34.3 ± 23.0 mm^3
  size of cerebral infarction, Total: 113.2 ± 74.0 mm^3
[2]; [8]
  size of cerebral infarction, Cerebral cortex: 39.9 ± 44.5 mm^3
  size of cerebral infarction, Striatum: 19.1 ± 24.4** mm^3
  size of cerebral infarction, Total: 59.0 ± 63.4* mm^3
[2]; [9]
  size of cerebral infarction, Cerebral cortex: 7.5 ± 13.3** mm^3
  size of cerebral infarction, Striatum: 3.3 ± 12.8** mm^3
  size of cerebral infarction, Total: 10.7 ± 14.5** mm^3
[2]; [10]
  size of cerebral infarction, Cerebral cortex: 81.4 ± 26.0 mm^3
  size of cerebral infarction, Striatum: 34.4 ± 16.0 mm^3
  size of cerebral infarction, Total: 115.8 ± 39.2 mm^3
[2]; pre-ischemic histidine 1000 mg/kg administration group
  size of infarction compared with that of the control group: no significant difference
[3]; 12 hours after ischemia, histidine-administration group versus control
  neutrophil infiltration: significantly suppressed
[3]; [11]
  number of neutrophils, +0.7 mm to the bregma: 128 ± 82
  number of neutrophils, +1.7 mm to the bregma: 101 ± 80
  number of neutrophils, −0.3 mm to the bregma: 106 ± 54
[3]; [12]
  number of neutrophils, +0.7 mm to the bregma: 0 ± 0
  number of neutrophils, +1.7 mm to the bregma: 1 ± 2
  number of neutrophils, −0.3 mm to the bregma: 0 ± 0
[3]; [13]
  number of neutrophils, +0.7 mm to the bregma: 250 ± 169
  number of neutrophils, −0.3 mm to the bregma: 287 ± 162
[3]; [14]
  number of neutrophils, +0.7 mm to the bregma: 0 ± 0
  number of neutrophils, +1.7 mm to the bregma: 1 ± 2
  number of neutrophils, −0.3 mm to the bregma: 0 ± 0
[4]; 12 hours after ischemia for 2 hours, cross section at +0.7 mm rostral to the bregma
  number of ED1-positive cells: significantly decreased
[4]; [15]
  number of ED1-positive cells, Differences (number of macrophages), +0.7 mm to the bregma: 123 ± 100*
  number of ED1-positive cells, Differences (number of macrophages), +1.7 mm to the bregma: 135 ± 101
  number of ED1-positive cells, Differences (number of macrophages), −0.3 mm to the bregma: 92 ± 107
[4]; [16]
  number of ED1-positive cells, +0.7 mm to the bregma: 450 ± 190
  number of ED1-positive cells, +1.7 mm to the bregma: 366 ± 149
  number of ED1-positive cells, −0.3 mm to the bregma: 363 ± 186
[4]; [17]
  number of ED1-positive cells, +0.7 mm to the bregma: 328 ± 113
  number of ED1-positive cells, +1.7 mm to the bregma: 238 ± 95
  number of ED1-positive cells, −0.3 mm to the bregma: 309 ± 72
[4]; 24 hours after ischemia, all cross sections
  number of ED1-positive cells: significant decreases
[4]; [18]
  number of ED1-positive cells, Differences (number of macrophages), +0.7 mm to the bregma: 141 ± 104*
  number of ED1-positive cells, Differences (number of macrophages), +1.7 mm to the bregma: 125 ± 72*
  number of ED1-positive cells, Differences (number of macrophages), −0.3 mm to the bregma: 190 ± 93*
[4]; [19]
  number of ED1-positive cells, +0.7 mm to the bregma: 264 ± 101
  number of ED1-positive cells, +1.7 mm to the bregma: 230 ± 57
  number of ED1-positive cells, −0.3 mm to the bregma: 340 ± 107
[4]; [20]
  number of ED1-positive cells, +0.7 mm to the bregma: 124 ± 34
  number of ED1-positive cells, +1.7 mm to the bregma: 104 ± 28
  number of ED1-positive cells, −0.3 mm to the bregma: 150 ± 46
[5]
  programmed death (delayed neuronal death) of neurons: depressed
[6]
  neuronal death 7 days after ischemia caused by apoptosis: depressed
